Laboratory results published in PMC4932538, “Alkanediamide-Linked Bisbenzamidines Are Promising Antiparasitic Agents” (Pharmaceuticals, 2016).
Where two headings read alike, the source gives them in different places.

Columns and labels:
[1] = tested on: T. b. brucei Lab 110 EATRO (pentamidine-sensitive); experiment: In vitro antitrypanosomal activity, T.b. brucei Lab 110 EATRO; assay type: cell-based, Trypanosoma brucei brucei; conditions: Trypanosoma brucei; Table S1; from IC50 of Table 1; read-out: pIC50 T.b. brucei (converted)
Protocol: (§5) The in vitro assays with the two isolates of T. brucei were conducted according to previously described procedures [14].

[2] = tested on: T. b. rhodesiense KETRi 243 (melarsoprol, pentamidine- and diminazene diaceturate-resistant); experiment: In vitro antitrypanosomal activity, T.b. rhodesiense KETRI 243; assay type: cell-based, Trypanosoma brucei rhodesiense; conditions: Trypanosoma brucei, RHODESIENSE; Table S1; from IC50 of Table 1; read-out: pIC50 T.b. rhod (converted)
Protocol: (§6) The anti-T. cruzi activity was determined using intracellular amastigote forms of T. cruzi Tulahuen strain C2C4 in rat skeletal myoblasts (L6 cells) as described previously [24]. The anti-L. donovani activity was determined using the amastigotes of L. donovani strain MHOM-ET-67/L82 as described previously [24]. […] The cytotoxicity assays against rat skeletal myoblast L6-cells were performed as described previously [24].

[3] = tested on: intracellular amastigote forms of T. cruzi Tulahuen strain C2C4 in rat skeletal myoblasts (L6 cells); experiment: In vitro anti-T. cruzi activity; assay type: cell-based, Trypanosoma cruzi; conditions: Trypanosoma cruzi, TULAHUEN, L6; average of at least two determinations
Protocol: as §6

[4] = tested on: amastigotes of L. donovani strain MHOM-ET-67/L82; experiment: In vitro anti-L. donovani activity; assay type: cell-based, Leishmania donovani; conditions: Leishmania donovani; average of at least two determinations
Protocol: as §6

[5] = tested on: P. falciparum K1 (chloroquine-resistant); experiment: In vitro anti-plasmodial activity, K1; assay type: cell-based, Plasmodium falciparum; conditions: Plasmodium falciparum, K1
Protocol: as §6

[6] = tested on: rat skeletal myoblast L6-cells; experiment: Cytotoxicity against L6 cells; assay type: cell-based; conditions: Rattus norvegicus, L6; cytotoxicity; read-out: IC50 L6 Cells
Protocol: as §6

[7] = tested on: poly(dA-dT); experiment: DNA thermal melting with poly(dA-dT); assay type: binding; conditions: 1:5 compound to DNA base pair ratio; mean of at least two determinations
Protocol: (§1) In addition to the determination of the potency of the synthesized compounds against different strains of cell lines (Table 1), thermal melting experiments of these compounds were also conducted with poly(dA-dT) and calf thymus DNA (Table S1, supplementary file). […] The weaker binding to DNA (lower ΔTm values) compared to pentamidine might be attributed to the lower lipophilicity and higher PSA properties of these compounds since they would be expected to bind less favorably in the less polar environment of the minor grove of DNA as was reported for the aza-analogues of furamidine. […] Therefore, ability of these compounds to act at other potential targets cannot be ruled out.
(§2) The DNA binding affinity of the tested compounds was determined by measuring the change in mid-point of the thermal denaturation curves for a 1:5 compound to DNA base pair ratio as described previously. Each Tm value reported in Table S1 (supplementary file) represents the mean of at least two experimental determinations.

[8] = tested on: calf thymus DNA; experiment: DNA thermal melting with calf thymus DNA; assay type: binding; conditions: 1:5 compound to DNA base pair ratio; mean of at least two determinations
Protocol: as §1, §2

[9] = tested on: T. b. brucei Lab 110 EATRO (pentamidine-sensitive); design: method as in PMID 19736009; conditions: strain Lab 110; average of at least two determinations; cited from earlier work
[10] = design: method as in PMID 24036514; conditions: incubation in vitro with mouse liver microsomes; cited from earlier work
[11] = tested on: P. falciparum NF54 (chloroquine-sensitive); experiment: In vitro anti-plasmodial activity, NF54; assay type: cell-based, Plasmodium falciparum; conditions: Plasmodium falciparum, NF54; chloroquine-sensitive strain; read-out: IC50 P. falcip NF54
[12] = tested on: T.b. brucei Lab 110 EATRO; experiment: In vivo trypanocidal activity in mice, Lab 110 EATRO; conditions: for curing of infected mice: i.p., 3 days
Protocol: (§3) The compounds were administered via the intraperitoneal route at doses ranging from 1.0 mg/kg/day to 25.0 mg/kg/day for 3 days unless otherwise noted. Pentamidine was used as the reference compound. All three of the tested compounds were effective in curing mice infected with the Lab 110 EATRO or KETRI 2002 strains at several doses.
(§4) The in vivo studies were conducted according to the procedures described previously.

[13] = tested on: T.b. rhodesiense KETRI 2002; experiment: In vivo trypanocidal activity in mice, KETRI 2002; conditions: for curing of infected mice: KETRI 2002, i.p., 3 days; for Mean Survival: KETRI 2002, 10, 15, 25 mg/kg/day i.p. for 3 days (all doses)
Protocol: as §3, §4

[14] = tested on: T.b. rhodesiense KETRI 2538; experiment: In vivo trypanocidal activity in mice, KETRI 2538; conditions: for Mean Survival: KETRI 2538; for curing of infected mice: drug-resistant KETRI 2538, i.p., 3 days
Protocol: as §3, §4

[15] = tested on: T.b. rhodesiense KETRI 1992; experiment: In vivo trypanocidal activity in mice, KETRI 1992; conditions: KETRI 1992
[16] = tested on: both strains of T. brucei and P. falciparum; experiment: In vitro potency against both strains of T. brucei and P. falciparum; assay type: cell-based, Trypanosoma brucei; Plasmodium falciparum; conditions: range over T.b. brucei, T.b. rhodesiense, P. falciparum NF54 and K1
Protocol: as §5

[17] = tested on: T. b. rhodesiense KETRi 243 (melarsoprol, pentamidine- and diminazene diaceturate-resistant); design: method as in PMID 19736009; conditions: strain KETRI 243; average of at least two determinations; read-out: IC50 T.b. rhod; cited from earlier work
[18] = tested on: Pneumocystis; design: method as in PMID 16801410; conditions: 20 mg/kg and 40 mg/kg, cited from earlier work
[19] = tested on: hemozoin formation; design: method as in PMID 15115412; conditions: micromolar concentrations, ex vivo; cited from earlier work
[20] = human, in vivo; cited from earlier work
[21] = Table S1, from IC50 of Table 1, read-out: pIC50 P. falcip K1 (converted)
[22] = chloroquine-resistant strain, read-out: IC50 P. falcip K1

Compound	IC50 [1]	IC50 [2]	IC50 [3]	IC50 [4]	IC50 [5, 21]	IC50 [5, 22]	IC50 [6]	Thermal Melting ΔTm Poly(dA-dT) [7]	Thermal Melting ΔTm CT-DNA [8]	IC50 [9]	IC50 [11]	Mean Survival ([12]; 1.0 mg/kg/day i.p. for 3 days)	No. of Mice Cured/Total (%) ([12]; 1.0 mg/kg/day i.p. for 3 days)	Mean Survival ([12]; 2.5 mg/kg/day i.p. for 3 days)	No. of Mice Cured/Total (%) ([12]; 2.5 mg/kg/day i.p. for 3 days)	Mean Survival ([12]; 5 mg/kg/day i.p. for 3 days)	Mean Survival ([12]; 10 mg/kg/day i.p. for 3 days)	Mean Survival ([12]; 15 mg/kg/day i.p. for 3 days)	curing of infected mice [12]	curing of infected mice [13]	further results
NC(=NO)c1ccc(NC(=O)CCCC(=O)Nc2ccc(C(N)=NO)cc2)cc1 [Compound 4]	7290 nM	10000 nM	> 100000 nM	> 100000 nM	3160 nM	3160 nM	> 100000 nM	0.0 C	0.7 C	7300 nM	–	–	–	–	–	–	–	–	–	–	metabolism of the amidoxime moiety to the amidine function [10]: readily metabolized
N=C(N)c1ccc(NC(=O)CCCC(=O)Nc2ccc(C(=N)N)cc2)cc1 [Compound 5]	8.99 nM	95.9 nM	> 100000 nM	> 100000 nM	2 nM	2 nM	69000 nM	11.4 C	5.6 C	9 nM	2 nM	6.0 days	0/3	11.3 days	0/3	10 days	>30 days	>30 days	highly effective	highly effective	Mean Survival [13]: >30 days; Mean Survival ([14]; 10, 15, 25 mg/kg/day i.p. for 3 days (all doses)): >30 days; curing of infected mice [14]: highly efficacious; Mean Survival ([15]; 10 mg/kg/day i.p. for 3 days): 17.5 days; No. of Mice Cured/Total (%) ([15]; 10 mg/kg/day i.p. for 3 days): 0/3; Mean Survival ([15]; 15 mg/kg/day i.p. for 3 days): 14.5 days; No. of Mice Cured/Total (%) ([15]; 15 mg/kg/day i.p. for 3 days): 0/3; Mean Survival ([15]; 25 mg/kg/day i.p. for 3 days): 25 days; No. of Mice Cured/Total (%) ([15]; 25 mg/kg/day i.p. for 3 days): 0/3; IC50 [16]: 1 to 96 nM; IC50 [17]: 96 nM; survival versus pentamidine treated mice ([18]; same doses of pentamidine): improved survival curves; reductions in burden [18]: > 1000 fold; interference with hemozoin formation [19]: interfere with hemozoin formation
N=C(N)c1ccc(NC(=O)CCCCC(=O)Nc2ccc(C(=N)N)cc2)cc1 [Compound 6]	3 nM	2 nM	> 100000 nM	> 100000 nM	18 nM	18 nM	> 100000 nM	14.4 C	8.7 C	3 nM	4 nM	6.7 days	0/3	10.0 days	0/3	>30 days	>30 days	>30 days	highly effective	highly effective	Mean Survival [13]: >30 days; Mean Survival ([14]; 5, 10, 15 mg/kg/day i.p. for 3 days (all doses)): >30 days; curing of infected mice [14]: highly efficacious; IC50 [16]: 1 to 96 nM; IC50 [17]: 2 nM
CONC(=N)c1ccc(-c2ccc(-c3ccc(C(=N)NOC)cc3)o2)cc1.O=C(O)/C=C\C(=O)O [parafuramidine maleate]	–	–	–	–	–	–	–	–	–	–	–	–	–	–	–	–	–	–	–	–	toxicity that halted development [20]: nephrotoxicity
